Read-outs that look alike come from different tables or passages of the source.
Key:
[1] = system: human urinary bladder cancer cell line RT-112; experiment: Cytotoxicity assay (CellTiter-Glo, 72 h), RT-112; assay type: cell-based; conditions: read-out: Cytotoxicity (IC50, nM) RT-112
Experimental: (§1) Cytotoxicity of SDC-TRAP molecules was determined in three cancer cell lines. […] 80 μL of CellTiter-Glo was added to each well, followed by room temperature incubation in the dark for 15 minutes. Cell was determined by luminescence. IC50 was calculated using XLfit™ software.

[2] = system: human urinary bladder cancer cell line SW780; experiment: Cytotoxicity assay (CellTiter-Glo, 72 h), SW780; assay type: cell-based; conditions: read-out: Cytotoxicity (IC50, nM) SW-780
Experimental: as §1

HER2 = HER2 degradation assay with BT-474 cell line (Example 12, FACS); assay type: cell-based, human
[3] = system: human breast cancer cell line BT-474; experiment: Cytotoxicity assay (CellTiter-Glo, 72 h), BT-474; assay type: cell-based; conditions: read-out: Cytotoxicity (IC50, nM) BT-474
Experimental: as §1

[4] = SDC-TRAP-0063 PK in male CD-1 mice (IV bolus); assay type: in vivo; conditions: of monitored analyte
[5] = SDC-TRAP-0063 PK in male SD rats (slow IV bolus); assay type: in vivo; conditions: of monitored analyte
[6] = Artificial membrane permeability assay (PAMPA)
Experimental: Pre-coated PAMPA plates were warmed to room temperature for at least 30 minutes prior to adding assay components.
Stock solutions were prepared with the SDC-TRAP molecules to be tested. In order to make a working solution, either 50 μL of 100 μM Stock in DMSO+950 μL of PBS or 50 μL of 200 μM stock was added to 96 deep well plate, resulting in a 5 μM final concentration or a 10 μM final concentration, respectively. 3000 μL of the working solution containing each compound to be tested was added to the appropriate well of a donor PAMPA plate. 200 μL of PBS was added into the corresponding wells of an acceptor PAMPA plates.
The acceptor plate was lowered onto the donor plate and allowed to incubate for five hours. After five hours, a 50 μL aliquot was removed from each well of each plate and added into a new 96 deep-well plate.
100 μL of methanol containing an internal standard was added to each aliquot and analyzed by LC/MS.
In order to calculate the permeability for each SDC-TRAP molecule and the control molecules, the following formula was used:

[7] = Mouse plasma stability protocol, up to 1 h (Examples 16-18)
Experimental: 150 ng/mL solution of SDC-TRAP-0002 in methanol was prepared using the internal standard spiking solution. This solution was used to precipitate all plasma samples in the study. 200 μL was pipetted into a 96 deepwell plate over dry ice. 10 μL of 1 mM stock in DMSO was added to a 1.5 mL microfuge tube, then 990 μL of plasma. Samples were mixed by vortex, then 50 μL of each sample was added in triplicate to a 96-well plate containing internal standard solution. This was designated the 0 hour time point sample. 250 μL of the remaining plasma sample was added to each of four 96 deepwell plates—one per time point. Samples were incubated at 37° C. with gentle shaking for 0.25, 0.5, and 1 hour. After each time point, one plate of each sample was removed from the shaker and placed on wet ice for approximately 2 minutes. 50 μL at plasma aliquots (in triplicate) were added to the deepwell plate containing internal standard solution. After the last time point was extracted, the 96 deepwell plate was vortexed, then centrifuged at 2-8° C. 150 μL of supernatant was collected and 25 μL at of water was added. Samples were mixed and analyzed by LC-MS/MS.
990 μL mouse plasma aliquots from a common stock were spiked with 10 μL of 1 mM stock of one of seven SDC-TRAP samples identified in the table below. Each sample was mixed and divided into 250 μL aliquots, each representing time points 0, 15 minutes, 30 minutes or 1 hour. At the prescribed time point, 3×50 μL samples were each mixed with 200 μL of methanol containing internal standard and held on dry ice until all time point samples were extracted. The samples collectively were vortex mixed for 1.5 minutes at 1500 rpm, then centrifuged at 4400 rpm for 10 minutes at 8° C.

[8] = dosed SDC-TRAP-0063 50 mpk IV bolus
[9] = dosed SDC-TRAP-0063 100 mpk IV bolus
[10] = dosed SDC-TRAP-0063 200 mpk IV bolus
[11] = dosed SDC-TRAP-0063 10 mpk slow IV bolus
[12] = dosed SDC-TRAP-0063 50 mpk slow IV bolus
[13] = dosed SDC-TRAP-0063 100 mpk slow IV bolus
[14] = dosed SDC-TRAP-0063 150 mpk slow IV bolus
[15] = % Remaining of parent after 1 h incubation in mouse plasma at 37° C. (10 μM)
[16] = Tissue Distribution Data for SDC-TRAP-0195, Time (h) 0.083
[17] = Tissue Distribution Data for SDC-TRAP-0195, Time (h) 1
[18] = Tissue Distribution Data for SDC-TRAP-0195, Time (h) 6
[19] = Tissue Distribution Data for SDC-TRAP-0195, Time (h) 24
[20] = Tissue Distribution Data for SDC-TRAP-0195, Time (h) 48
[21] = Tissue Distribution Data for SDC-TRAP-0154, Time (h) 0.083
[22] = Tissue Distribution Data for SDC-TRAP-0154, Time (h) 1
[23] = Tissue Distribution Data for SDC-TRAP-0154, Time (h) 6
[24] = Tissue Distribution Data for SDC-TRAP-0154, Time (h) 24
[25] = Tissue Distribution Data for SDC-TRAP-0154, Time (h) 48

## CC(C)c1cc(C(=O)N2Cc3ccc(NC(=O)CCCc4nc5cc(N(CCCl)CCCl)ccc5n4C)cc3C2)c(O)cc1O [SDC-TRAP-0211, 4-(5-(bis(2-chloroethyl)amino)-1-methyl-1H-benzo[d]imidazol-2-yl)-N-(2-(2,4-dihydroxy-5-isopropylbenzoyl)isoindolin-5-yl)butanamide]
[1]; RT-112, 72 h
  IC50: 110 nM
[2]; SW780, 72 h
  IC50: 2340 nM
HER2; BT-474 cells, overnight
  IC50: 289 nM
[3]; BT-474, 72 h
  IC50: 249 nM

## CCc1c2c(nc3ccc(OC(=O)N4CCC(CCn5ccc6cc(-n7c(O)nnc7-c7cc(C(C)C)c(O)cc7O)ccc65)CC4)cc13)-c1cc3c(c(=O)n1C2)COC(=O)C3(O)CC (centres unmarked) [compound 0063]
[4]; [8]
  AUCinf: 237 µM·h
  AUCt: 235 µM·h
  CL: 4 mL/min/kg
  Cmax: 414 µM
  Tmax: 4.98 min
  Vss: 0.122 L/kg
  Vz: 0.659 L/kg
  t1/2: 114 min
[4]; [9]
  AUCinf: 549 µM·h
  AUCt: 549 µM·h
  CL: 3.45 mL/min/kg
  Cmax: 799 µM
  Tmax: 4.98 min
  Vss: 0.241 L/kg
  Vz: 0.747 L/kg
  t1/2: 150 min
[4]; [10]
  AUCinf: 2884 µM·h
  AUCt: 2882 µM·h
  CL: 1.32 mL/min/kg
  Cmax: 1620 µM
  Tmax: 4.98 min
  Vss: 0.173 L/kg
  Vz: 0.307 L/kg
  t1/2: 162 min
[5]; [11]
  AUCinf: 38.8 µM·h
  AUCt: 38.8 µM·h
  CL: 4.9 mL/min/kg
  Cmax: 102 µM
  Tmax: 4.98 min
  Vss: 0.0590 L/kg
  Vz: 0.441 L/kg
  t1/2: 60 min
[5]; [12]
  AUCinf: 687 µM·h
  AUCt: 687 µM·h
  CL: 1.38 mL/min/kg
  Cmax: 659 µM
  Tmax: 4.98 min
  Vss: 0.0640 L/kg
  Vz: 0.0924 L/kg
  t1/2: 48 min
[5]; [13]
  AUCinf: 1786 µM·h
  AUCt: 1785 µM·h
  CL: 1.08 mL/min/kg
  Cmax: 1210 µM
  Tmax: 4.98 min
  Vss: 0.0654 L/kg
  Vz: 0.153 L/kg
  t1/2: 96 min
[5]; [14]
  AUCinf: 5302 µM·h
  AUCt: 5302 µM·h
  CL: 0.547 mL/min/kg
  Cmax: 1900 µM
  Tmax: 30 min
  Vss: 0.0663 L/kg
  Vz: 0.0855 L/kg
  t1/2: 108 min

## CC(C)c1cc(-c2nnc(O)n2-c2ccc3c(c2)CN(C(=O)c2ccc(CCc4c[nH]c5nc(N)[nH]c(=O)c45)cc2)C3)c(O)cc1O [SDC-TRAP-0093, 2-amino-5-(4-(5-(3-(2,4-dihydroxy-5-isopropylphenyl)-5-hydroxy-4H-1,2,4-triazol-4-yl)isoindoline-2-carbonyl)phenethyl)-3H-pyrrolo[2,3-d]pyrimidin-4(7H)-one]
[1]; RT-112, 72 hours
  IC50: 1290 nM
[2]; SW780, 72 hours
  IC50: > 10000 nM
[3]; BT-474, 72 hours
  IC50: 1540 nM

## CCc1c2c(nc3ccc(O)cc13)-c1cc3c(c(=O)n1C2)COC(=O)[C@@]3(CC)OC(=O)N1CCC(CCn2ccc3cc(-n4c(O)nnc4-c4cc(C(C)C)c(O)cc4O)ccc32)CC1 [SDC-TRAP-0064, (S)-4,11-diethyl-9-hydroxy-3,14-dioxo-3,4,12,14-tetrahydro-1H-pyrano[3′,4′:6,7]indolizino[1,2-b]quinolin-4-yl 4-(2-(5-(3-(2,4-dihydroxy-5-isopropylphenyl)-5-hydroxy-4H-1,2,4-triazol-4-yl)-1H-indol-1-yl)ethyl)piperidine-1-carboxylate]
[6]; same protocol, second table
  Mass Retention: 48.4%
HER2
  IC50: 1130 nM
[7]; [15]
  % Remaining (1 h): 91.5%
[7]; mouse plasma, 37° C., 10 μM
  % Remaining (1 h): 91.5%
[7]; mouse plasma, 37° C.
  % Remaining (1 h, 37° C.): 91.5%

## CCNC(=O)c1nnc(-c2cc(C(C)C)c(O)cc2O)n1-c1ccc(CN2CCC(C(=O)N3CCN(c4cc(C)c(OC(=O)Nc5cccc6c5CN(C5CCC(=O)NC5=O)C6=O)c(C)c4)CC3)CC2)cc1 (centres unmarked) [SDC-TRAP-0195, 4-(4-(1-(4-(3-(2,4-dihydroxy-5-isopropylphenyl)-5-(ethylcarbamoyl)-4H-1,2,4-triazol-4-yl)benzyl)piperidine-4-carbonyl)piperazin-1-yl)-2,6-dimethylphenyl (2-(2,6-dioxopiperidin-3-yl)-1-oxoisoindolin-4-yl)carbamate]
[16]
  Plasma Conc.: 1220 µM
  Tumor Conc.: 17.1 nmol/g of tissue
  Tumor/Plasma Ratio: 0.0140
[17]
  Plasma Conc.: 211 µM
  Tumor Conc.: 23.0 nmol/g of tissue
  Tumor/Plasma Ratio: 0.109
[18]
  Plasma Conc.: 7.23 µM
  Tumor Conc.: 17.1 nmol/g of tissue
  Tumor/Plasma Ratio: 2.36
[19]
  Plasma Conc.: 2.03 µM
  Tumor Conc.: 11.2 nmol/g of tissue
  Tumor/Plasma Ratio: 5.50
[20]
  Plasma Conc.: BQL
  Tumor Conc.: 12.6 nmol/g of tissue
[6]; incubation 5 h, first table
  Mass Retention: 27.1%
HER2
  IC50: 49 nM
[7]; [15]
  % Remaining (1 h): 98.4%

## CCNC(=O)c1nnc(-c2cc(C(C)C)c(O)cc2O)n1-c1ccc2c(ccn2CCC2CCN(C(=O)Oc3ccc4nc5c(c(CC)c4c3)Cn3c-5cc4c(c3=O)COC(=O)[C@]4(O)CC)CC2)c1 [SDC-TRAP-0205, (S)-4,11-diethyl-4-hydroxy-3,14-dioxo-3,4,12,14-tetrahydro-1H-pyrano[3′,4′:6,7]indolizino[1,2-b]quinolin-9-yl 4-(2-(5-(3-(2,4-dihydroxy-5-isopropylphenyl)-5-(ethylcarbamoyl)-4H-1,2,4-triazol-4-yl)-1H-indol-1-yl)ethyl)piperidine-1-carboxylate]
[6]; same protocol, second table
  Mass Retention: 10.9%
HER2
  IC50: 564 nM
[7]; [15]
  % Remaining (1 h): 58.4%
[7]; mouse plasma, 37° C.
  % Remaining (1 h, 37° C.): 58.4%

## CCNC(=O)c1nnc(-c2cc(C(C)C)c(O)cc2O)n1-c1ccc2c(ccn2CCC2CCN(C(=O)O[C@]3(CC)C(=O)OCc4c3cc3n(c4=O)Cc4c-3nc3ccc(O)cc3c4CC)CC2)c1 [SDC-TRAP-0208, (S)-4,11-diethyl-9-hydroxy-3,14-dioxo-3,4,12,14-tetrahydro-1H-pyrano[3′,4′: 6,7]indolizino[1,2-b]quinolin-4-yl 4-(2-(5-(3-(2,4-dihydroxy-5-isopropylphenyl)-5-(ethylcarbamoyl)-4H-1,2,4-triazol-4-yl)-1H-indol-1-yl)ethyl)piperidine-1-carboxylate]
[6]; same protocol, second table
  Mass Retention: 25.0%
HER2
  IC50: 480 nM
[7]; [15]
  % Remaining (1 h): 86.1%
[7]; mouse plasma, 37° C.
  % Remaining (1 h, 37° C.): 86.1%

## COc1cccc2c1C(=O)c1c(O)c3c(c(O)c1C2=O)C[C@@](O)(/C(CO)=N/NC(=O)CCn1ccc2cc(-n4c(O)nnc4-c4cc(C(C)C)c(O)cc4O)ccc21)C[C@@H]3O[C@H]1C[C@H](N)[C@H](O)[C@H](C)O1 [SDC-TRAP-0219, (E)-N′-(1-((2S,4S)-4-(((2R,4S,5S,6S)-4-amino-5-hydroxy-6-methyltetrahydro-2H-pyran-2-yl)oxy)-2,5,12-trihydroxy-7-methoxy-6,11-dioxo-1,2,3,4,6,11-hexahydrotetracen-2-yl)-2-hydroxyethylidene)-3-(5-(3-(2,4-dihydroxy-5-isopropylphenyl)-5-hydroxy-4H-1,2,4-triazol-4-yl)-1H-indol-1-yl)propanehydrazide]
[1]; RT-112, 72 hours
  IC50: 973 nM
[2]; SW780, 72 hours
  IC50: > 10000 nM
[3]; BT-474, 72 hours
  IC50: > 10000 nM

## CCNC(=O)c1nnc(-c2cc(C(C)C)c(O)cc2O)n1-c1ccc(Oc2ccc(C(=O)N3CCC(C(=O)OC4(CC)C(=O)OCc5c4cc4n(c5=O)Cc5c-4nc4ccc(O)cc4c5CC)CC3)cc2)cc1 (centres unmarked) [SDC-TRAP-0154, 4,11-Diethyl-9-hydroxy-3,14-dioxo-3,4,12,14-tetrahydro-1H-pyrano[3′,4′:6,7]indolizino[1,2-b]quinolin-4-yl 1-(4-(4-(3-(2,4-dihydroxy-5-isopropylphenyl)-5-(ethylcarbamoyl)-4H-1,2,4-triazol-4-yl)phenoxy)benzoyl)piperidine-4-carboxylate]
[21]
  Plasma Conc.: 928 µM
  Tumor Conc.: 11.8 nmol/g of tissue
  Tumor/Plasma Ratio: 0.01
[22]
  Plasma Conc.: 251 µM
  Tumor Conc.: 14.1 nmol/g of tissue
  Tumor/Plasma Ratio: 0.06
[23]
  Plasma Conc.: 5.08 µM
  Tumor Conc.: 9.46 nmol/g of tissue
  Tumor/Plasma Ratio: 1.86
[24]
  Plasma Conc.: 0.198 µM
  Tumor Conc.: 2.35 nmol/g of tissue
  Tumor/Plasma Ratio: 11.9
[25]
  Plasma Conc.: 0.0218 µM
  Tumor Conc.: 1.88 nmol/g of tissue
  Tumor/Plasma Ratio: 86.0
[6]; same protocol, second table
  Mass Retention: 10.3%
HER2
  IC50: 191 nM

Source: patent US10828315B2 (Madrigal Pharmaceuticals, Inc., priority 2013, dated 2020)
